Assay results taken from patent publication US10544113B2 (priority 2016, dated 2020).
pEC50: −log10 of the molar value. Where two headings read alike, the source gives them in different places.

Experiments:
mu-opioid receptor (MOR) = mu-opioid receptor (MOR) (Homo sapiens (Human), UniProt P35372); test: cell-based; settings: for AUC: AUC of [Ca2+]i fluorescence, CHO-K1/MOR/Gα15 cells
B6 mice = test: Tail-flick test; assay type: in vivo, mouse; design: key to Activity of tail-flick test: ++: 25 mg/kg (intravenous) or 50 nmol (intrathecal) active; +: 100 mg/kg (intravenous) active; settings: mice; compound given intravenous or intrathecal
Description: In an exemplary in vivo method, a test compound and a MOR antagonist are injected into a mouse pain model (for example, intravenous but not limited), basal latencies are recorded before the treatment and test latencies are recorded at various specified times after the injection, and a time-response curve is recorded and AUC values are calculated to determine whether an analgesic effect is exerted on the mouse. The test compound is confirmed to be an antagonist-to-agonist allosteric modifier of the MOR upon observation of an analgesic effect.
Male wild-type (WT) B6 mice (25-30 g) were kept in a temperature-controlled animal room with a 12-h light/dark cycle. The protocol has been approved by the Institutional Animal Care and Use Committee of the National Health Research Institutes, Taiwan. Animal experiments were carried out in accordance with the Policies on the Use of Animals in Neuroscience Research and the ethical guidelines for investigations of experimental pain in conscious animals, International Association for the Study of Pain. Tail-Flick Analgesia Meter (Columbia Instruments) was used to measure the tail-flick latencies of mice. The cut-off time for each measurement was 10 s to avoid tissue damage. Basal latencies were recorded before treatment and test latencies were recorded 30, 60, 90, 120 and 180 min after an intravenous injection of drugs. […] ED50 values were determined by the up-and-down method reported in Crocker et al., Pharmacol Biochem Behav, 1984, 21, 133-136.
An in vivo study, i.e., tail-flick test, was performed to investigate whether AAMs could change innate character of μ-opioid receptor in the presence of naloxone. […] In mice injected with naloxone (10 mg/kg; s.c.), the ED50 value of compound 58 in inhibition of the tail-flick response was determined to be 23.1±7.1 nmole.

DOR = test: cAMP assay (adenylyl cyclase inhibition) in HEK-DOR cells; assay type: cell-based
Description: Human embryonic kidney 293 (HEK-293) cells constitutively expressing MOR (HEK-MOR) and DOR (HEK-DOR) (kindly provided by Dr. Ping-Yee Law, University of Minnesota, USA) were cultured in high-glucose Dulbecco's modified Eagle's medium (DMEM, GIBCO) supplemented with 400 μg/mL G418 (Sigma), 2 mM L-glutamine and P/S/F (100 units/mL penicillin, 100 μg/mL streptomycin, 10% fetal bovine serum). Chinese hamster ovary (CHO)-K1 cells, stably expressing hMOR and Gα15 (CHO-K1/MOR/Gα15), were cultured in F12 medium (GIBCO) supplemented with 10 μg/mL Hygromycin B (Invivogen), 20 μg/mL Zeocin (Invivogen) P/S/F (100 units/mL penicillin, 100 μg/mL streptomycin, 10% fetal bovine serum). The cultures were incubated at 37° C. in a humidified 5% CO2 incubator.
Briefly, 2000 HEK-MOR cells or HEK-DOR cells were plated in 10 μL/well of DMEM in 96-well solid bottom white plates and 10 μL/well compound in HBSS in the presence with 1 μM forskolin and 100 μM 3-isobutyl-1-methylxanthine (IBMX). After 30 minutes of incubation at room temperature, 10 μL/well of labeled d2-cAMP and 10 μL/well of anti-cAMP antibody (both diluted in lysis buffer) were added to each well. Two hours later, plates were measured using the FlexStationIII (Molecular Devices Corp.) with excitation at 330 nm and emissions of 620 nm and 665 nm.
To characterize of novel opioid receptor AAMs, the activity and selectivity of compound 58 were tested by inhibiting adenylyl cyclase activity (i.e., cAMP assay).
Opoid receptors inhibit adenylyl cyclase activity through Gi/o family of heterotrimeric G proteins. A cAMP-accumulation assay was performed to determine whether opioid receptor AAMs affect a G protein-dependent signaling pathway.

[1] = combined with a MOR antagonist, read-out: FLIPR Ca^2+ EC50
[2] = FLIPR Ca^2+ EC50, combined with a MOR antagonist
[3] = EC50, CHO-K1/MOR/Gα15 cells, combined with a MOR antagonist

mu-opioid receptor (MOR), sequence (P35372 whole entry): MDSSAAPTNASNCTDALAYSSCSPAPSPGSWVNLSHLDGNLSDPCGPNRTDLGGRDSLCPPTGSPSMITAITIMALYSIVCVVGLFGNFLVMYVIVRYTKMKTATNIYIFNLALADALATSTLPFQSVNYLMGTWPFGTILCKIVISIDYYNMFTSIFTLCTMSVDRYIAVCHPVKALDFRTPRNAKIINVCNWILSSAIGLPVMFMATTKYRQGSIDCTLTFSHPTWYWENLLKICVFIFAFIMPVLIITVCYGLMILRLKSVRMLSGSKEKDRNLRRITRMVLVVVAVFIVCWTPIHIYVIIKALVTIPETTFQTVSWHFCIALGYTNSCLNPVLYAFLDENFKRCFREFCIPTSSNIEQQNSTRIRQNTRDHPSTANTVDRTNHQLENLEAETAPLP

| Molecule | FLIPR Ca^2+ AUC (mu-opioid receptor (MOR); combined with a MOR antagonist) | pEC50 (mu-opioid receptor (MOR); [1]) | AUC (mu-opioid receptor (MOR); combined with a MOR antagonist) | pEC50 (mu-opioid receptor (MOR); [2]) | pEC50 (mu-opioid receptor (MOR); [3]) | Activity of tail-flick test (B6 mice) | cAMP-inhibition response (DOR; % of forskolin-stimulated (1 μM) cAMP accumulation) | pEC50 (DOR; agonist alone) |
| --- | --- | --- | --- | --- | --- | --- | --- | --- |
| Cc1cc(C(=O)NCCc2cccc(Cl)c2)ccc1N1C(=O)CSC1c1ccc(F)cc1 (centres unmarked) [Example 386] | 5727 | 5.38 |  |  |  |  |  |  |
| Cc1cc(C(=O)NCCc2ccc(F)cc2)ccc1N1C(=O)CSC1c1ccc(F)cc1 (centres unmarked) [Example 387] | 5770 | 5.40 |  |  |  |  |  |  |
| Cc1cc(C(=O)NCCc2ccc(Cl)cc2)ccc1N1C(=O)CSC1c1ccc(F)cc1 (centres unmarked) [Example 388] | 2951 | 5.70 |  |  |  |  |  |  |
| Cc1cc(C(=O)OCCOCCOC(=O)c2ccc(N3C(=O)CSC3c3ccc(F)cc3)c(C)c2)ccc1N1C(=O)CSC1c1ccc(F)cc1 (centres unmarked) [Example 390] | 7399 | 4.86 | more than 5000 |  |  |  |  |  |
| Cc1noc(N2C(=O)CSC2c2ccc(F)cc2)c1C (centres unmarked) [Example 395] | 7107 | 4.92 | more than 5000 |  |  |  |  |  |
| Cc1c(N2C(=O)CSC2c2cccc(F)c2)c(=O)n(-c2ccccc2)n1C (centres unmarked) [Example 404] | 7127 | 4.66 | more than 5000 |  |  |  |  |  |
| Cc1c(N2C(=O)CSC2c2ccccc2F)c(=O)n(-c2ccccc2)n1C (centres unmarked) [Example 406] | 9974 | 4.51 | more than 5000 |  |  |  |  |  |
| Cc1c(N2C(=O)CSC2c2ccccc2)c(=O)n(-c2ccccc2)n1C (centres unmarked) [Example 408] | 9281 | 4.90 | more than 5000 |  |  |  |  |  |
| Cc1c(N2C(=O)CSC2c2ccc(F)cc2)c(=O)n(-c2ccccc2)n1C (centres unmarked) [Example 411] | 8099 | 4.70 | more than 5000 |  |  |  |  |  |
| COC(=O)c1ccc(N2C(=O)CSC2c2ccoc2)c(C)c1 (centres unmarked) [Example 416] | 6514 | 4.93 | more than 5000 |  |  |  |  |  |
| [2H]c1c([2H])c(C2SCC(=O)N2c2ccc(C(=O)O)cc2C)c([2H])c([2H])c1F (centres unmarked) [Example 579, 4-{2-[4-Fluoro-2,3,5,6-d4-phenyl]-4-oxo-1,3-thiazolidin-3-yl}-3-methylbenzoic acid] | 14761 | 5.71 |  |  |  |  |  |  |
| [2H]c1c([2H])c(C2SCC(=O)N2c2ccc(C(=O)OCC)cc2C)c([2H])c([2H])c1F (centres unmarked) [Example 580, Ethyl 4-{2-[4-fluoro-2,3,5,6-d4-phenyl]-4-oxo-1,3-thiazolidin-3-yl}-3-methylbenzoate] | 14441 |  |  | 5.37 |  |  |  |  |
| [2H]C1(c2ccc(F)cc2)SCC(=O)N1c1ccc(C(=O)O)cc1C (centres unmarked) [Example 581, 4-[2-(4-Fluorophenyl)-4-oxo-2-d1-1,3-thiazolidin-3-yl]-3-methylbenzoic acid] | 13703 | 5.48 |  |  |  |  |  |  |
| [2H]C1(c2ccc(F)cc2)SCC(=O)N1c1ccc(C(=O)OCC)cc1C (centres unmarked) [Example 583, Ethyl 4-[2-(4-fluorophenyl)-4-oxo-2-d1-1,3-thiazolidin-3-yl]-3-methylbenzoate] | 11275 |  | more than 5000 | 5.35 | > 5.00 |  |  |  |
| CCONC(=O)c1ccc(N2C(=O)CSC2c2ccc(F)cc2)c(C)c1 (centres unmarked) [Example 588, N-Ethoxy-4-[2-(4-fluorophenyl)-4-oxo-1,3-thiazolidin-3-yl]-3-methylbenzamide] | 9986 | 5.03 | more than 5000 |  | > 5.00 |  |  |  |
| COCCOCCOC(=O)c1ccc(S(=O)(=O)NC(=O)c2ccc(N3C(=O)CSC3c3ccc(F)cc3)c(C)c2)cc1 (centres unmarked) [Example 591, 2-(2-Methoxyethoxy)ethyl 4-({4-[2-(4-fluorophenyl)-4-oxo-1,3-thiazolidin-3-yl]-3-methylbenzoyl}sulfamoyl)benzoate] | 13033 | 4.99 | more than 5000 |  |  |  |  |  |
| COCCS(=O)(=O)NC(=O)c1ccc(N2C(=O)CSC2c2ccc(F)cc2)c(C)c1 (centres unmarked) [Example 593, 4-[2-(4-Fluorophenyl)-4-oxo-1,3-thiazolidin-3-yl]-N-[(2-methoxyethyl)sulfonyl]-3-methylbenzamide] | 11543 | 5.66 | more than 5000 |  | > 5.00 |  |  |  |
| COCCOCCS(=O)(=O)NC(=O)c1ccc(N2C(=O)CSC2c2ccc(F)cc2)c(C)c1 (centres unmarked) [Example 597, 4-[2-(4-Fluorophenyl)-4-oxo-1,3-thiazolidin-3-yl]-N-{[2-(2-methoxyethoxy)ethyl]sulfonyl}-3-methylbenzamide] | 10720 | 5.95 | more than 5000 |  | > 5.00 |  |  |  |
| Cc1cc(C(O)C(F)(F)F)ccc1N1C(=O)CSC1c1ccc(F)cc1 (centres unmarked) [Example 600, 2-(4-Fluorophenyl)-3-[2-methyl-4-(2,2,2-trifluoro-1-hydroxyethyl)phenyl]-1,3-thiazolidin-4-one] | 13110 | 5.17 | more than 5000 |  | > 5.00 |  |  |  |
| Cc1cccnc1N1C(=O)CSC1c1ccc(F)cc1 (centres unmarked) [Example 629, 2-(4-Fluorophenyl)-3-(3-methylpyridin-2-yl)-1,3-thiazolidin-4-one] | 4804 | 5.00 |  |  |  |  |  |  |
| CCOC(=O)c1ccc(N2C(=O)CSC2c2ccc(F)cc2)c(C)n1 (centres unmarked) [Example 635, Ethyl 5-[2-(4-fluorophenyl)-4-oxo-1,3-thiazolidin-3-yl]-6-methylpyridine-2-carboxylate] | 9843 | 4.96 | more than 5000 |  |  |  |  |  |
| CC(C)(C)c1cc(N2C(=O)CSC2c2ccc(F)cc2)no1 (centres unmarked) [Example 640, 3-(5-tert-Butyl-1,2-oxazol-3-yl)-2-(4-fluorophenyl)-1,3-thiazolidin-4-one] | 9872 | 4.85 | more than 5000 |  |  |  |  |  |
| COC(=O)c1ccc(N2C(=O)CSC2c2ccsc2)c(C)c1 (centres unmarked) [Example 648, Methyl 3-methyl-4-[4-oxo-2-(thiophen-3-yl)-1,3-thiazolidin-3-yl]benzoate] | 9356 | 5.70 | more than 5000 |  | > 5.00 |  |  |  |
| N-Cyclobutyl-4-[2-(4-fluorophenyl)-4-oxo-1, 3-thiazolidin-3-yl]-3-methylbenzamide [Example 255] |  |  |  |  |  | + |  |  |
| [D-Pen(2),D-Pen(5)]-enkephalin [DPDPE] |  |  |  |  |  |  | 60% | 9.30 |
